# Laboratory results reported in publication PMC6277767, “Broad and Region-Specific Impacts of the Synthetic Cannabinoid CP 55,940 in Adolescent and Adult Female Mouse Brains” (Frontiers in Molecular Neuroscience, 2018).
# Test system: CD1 female mouse brain lipidome
# Test: Brain-region lipid levels (HPLC/MS/MS lipidomics) 2 h after single i.p. 3 mg/kg CP 55,940 vs vehicle
# Format: in vivo
# Parameters: N-arachidonoyl phenylalanine level, Mean / N-stearoyl tryptophan level, Mean / N-stearoyl proline level, Mean / N-stearoyl leucine level, Mean / N-stearoyl phenylalanine level, Mean / N-stearoyl serine level, Mean / N-stearoyl methionine level, Mean: unit: moles per gram
# Conditions: striatum
# Experimental: The Bloomington Institutional Animal Care and Use Committee of Indiana University reviewed and approved the animal procedures. Female mice from the CD1 strain were utilized to match our study examining THC’s effects on the brain lipidome ([Leishman et al., 2018]). Mice were given a single i.p. injection of either 3 mg/kg CP or 1:1:18 cremophor:ethanol:saline vehicle (please refer to the section “3 mg/kg CP Is Relevant for Synthetic Cannabinoid Abuse and Has Stronger Effects on the Female Mouse Brain Lipidome During Adolescence” for a justification of dose and use of female mice). Three different age groups were given injections: PND 35 and PND 50 adolescents, and adult mice (PND 113). At least eight mice in each age group received CP and at least eight received vehicle. Matching the THC study time course ([Leishman et al., 2018]), mice were sacrificed via rapid decapitation 2 h after injection. Brains were immediately removed and flash-frozen in liquid nitrogen, and then stored at -80°C until dissections were performed. Brains were dissected on an ice-cold dissection plate into the following regions: STR, HIPP, CER, THAL, CTX, HYP, MID, and STEM. These abbreviations for these brain areas will be used exclusively when discussing the results generated by these specific dissections. Each dissected area was immediately placed in liquid nitrogen and then stored at -80°C until used for lipid extraction.
# Tissue extracts were performed as previously described ([Bradshaw et al., 2006]; [Stuart et al., 2013]; [Raboune et al., 2014]; [Leishman et al., 2016a],[b], [2017], [2018]). First, samples were shock frozen in liquid nitrogen, weighed, and transferred to a centrifuge tube. The mass of the largest sample was multiplied by 50 to determine how many milliliters of HPLC-grade methanol (Fisher, Fair Lawn, NJ, United States) to add. Then, samples were spiked with 500 pmol deuterium-labeled NAGly (d8NAGly; Cayman Chemical, Ann Arbor, MI, United States). Samples were placed on ice in darkness for 2 h then individually homogenized and centrifuged at 19,000 × g for 20 min at 20°C. Supernatants were diluted with HPLC water (purified in house) to make a solution of 75% water, 25% supernatant. Lipids were partially purified on C18 solid phase extraction columns (Agilent, Palo Alto, CA, United States). A series of four elutions with 1.5 mL of 60%, 75%, 85%, and 100% methanol were collected ([Stuart et al., 2013]; [Leishman et al., 2016a],[b], [2018]).
# As previously described ([Bradshaw et al., 2006]; [Tan et al., 2006]; [Smoum et al., 2010]; [Stuart et al., 2013]; [Tortoriello et al., 2013]; [Raboune et al., 2014]; [Leishman et al., 2016a],[b], [2017], [2018]), samples were analyzed using an Applied Biosystems API 3000 triple quadrupole mass spectrometer with electrospray ionization (Foster City, CA, United States). Using an Agilent XDB-C18 reversed phase analytical column and optimized mobile phase gradients, 20 μL from each elution were chromatographed. Two Shimadzu 10ADvp pumps (Columbia, MD, United States) provided the pressure for gradient elution. Mobile phase A: 20% methanol, 80% water (v/v) and 1 mM ammonium acetate (Sigma, St. Louis, MO, United States). Mobile phase B: 100% methanol, 1 mM ammonium acetate. Every method run began with 0% mobile phase B, reached 100% mobile phase B flowing at 0.2 mL/min, and gradually returned to 0% mobile phase B.
# This screening library will be referred to as the lipidome when discussing data from this study. HPLC/MS/MS data were analyzed using Analyst software (Applied Biosystems) ([Bradshaw et al., 2006]; [Tan et al., 2006]; [Stuart et al., 2013]; [Tortoriello et al., 2013]; [Raboune et al., 2014]; [Leishman et al., 2016a],[b], [2017], [2018]). Chromatograms (Supplementary Figure 3) were generated by determining the retention time of analytes from the analytical column with a [M-1] or [M+1] parent peak and a fragmentation peak corresponding to the programmed values. […]
# [1] = PND 50 female mice, 3mg/kg CP 55,940, mean
smiles,measurement,setting,value
"CCCCCCC(C)(C)c1ccc([C@@H]2C[C@H](O)CC[C@H]2CCCO)c(O)c1 [CP 55,940]",N-palmitoyl valine level,[1],1.79E-13
same,N-stearoyl GABA level,[1],3.86E-12
same,N-stearoyl alanine level,[1],6.45E-13
same,N-stearoyl ethanolamine level,[1],2.79E-11
same,N-stearoyl glycine level,[1],4.91E-13
same,N-stearoyl leucine level,[1],1.1E-12
same,N-stearoyl methionine level,[1],8.01E-13
same,N-stearoyl phenylalanine level,[1],1.27E-12
same,N-stearoyl proline level,[1],BDL
same,N-stearoyl serine level,[1],5.13E-11
same,N-stearoyl tryptophan level,[1],BDL
same,N-stearoyl tyrosine level,[1],9.9E-14
same,Oleic acid level,[1],2.17E-10
same,PGE2 level,[1],7.65E-11
same,PGF2α level,[1],9.33E-11
same,THC level,[1],BDL
same,"2-arachidonoyl-sn-glycerol level, Mean","adult, 3 mg/kg CP 55,940",1.6E-09
same,"2-linoleoyl-sn-glycerol level, Mean","adult, 3 mg/kg CP 55,940",1.72E-10
same,"2-oleoyl-sn-glycerol level, Mean","adult, 3 mg/kg CP 55,940",1.58E-09
same,"2-palmitoyl-sn-glycerol level, Mean","adult, 3 mg/kg CP 55,940",1.51E-10
same,"6-ketoPGF1α level, Mean","adult, 3 mg/kg CP 55,940",PISSR
same,"11-OH-THC level, Mean","adult, 3 mg/kg CP 55,940",BDL
same,"11-nor-9-carboxyTHC level, Mean","adult, 3 mg/kg CP 55,940",BDL
same,"Arachidonic acid level, Mean","adult, 3 mg/kg CP 55,940",1.93E-09
same,"Cannabidiol level, Mean","adult, 3 mg/kg CP 55,940",BDL
same,"Linoleic acid level, Mean","adult, 3 mg/kg CP 55,940",7.69E-10
same,"N- stearoyl valine level, Mean","adult, 3 mg/kg CP 55,940",PISSR
same,"N-arachidonoyl GABA level, Mean","adult, 3 mg/kg CP 55,940",2.43E-11
same,"N-arachidonoyl alanine level, Mean","adult, 3 mg/kg CP 55,940",2.03E-12
same,"N-arachidonoyl dopamine level, Mean","adult, 3 mg/kg CP 55,940",BDL
same,"N-arachidonoyl ethanolamine level, Mean","adult, 3 mg/kg CP 55,940",2.19E-11
same,"N-arachidonoyl glycine level, Mean","adult, 3 mg/kg CP 55,940",6.38E-13
same,"N-arachidonoyl methionine level, Mean","adult, 3 mg/kg CP 55,940",BDL
same,"N-arachidonoyl phenylalanine level, Mean","adult, 3 mg/kg CP 55,940",9.64E-14
same,"N-arachidonoyl proline level, Mean","adult, 3 mg/kg CP 55,940",BDL
same,"N-arachidonoyl serine level, Mean","adult, 3 mg/kg CP 55,940",PISSR
same,"N-arachidonoyl taurine level, Mean","adult, 3 mg/kg CP 55,940",9.74E-11
same,"N-arachidonoyl tryptophan level, Mean","adult, 3 mg/kg CP 55,940",BDL
same,"N-arachidonoyl tyrosine level, Mean","adult, 3 mg/kg CP 55,940",PISSR
same,"N-docosahexaenoyl GABA level, Mean","adult, 3 mg/kg CP 55,940",PISSR
same,"N-docosahexaenoyl alanine level, Mean","adult, 3 mg/kg CP 55,940",BDL
same,"N-docosahexaenoyl ethanolamine level, Mean","adult, 3 mg/kg CP 55,940",2.36E-11
same,"N-docosahexaenoyl glycine level, Mean","adult, 3 mg/kg CP 55,940",PISSR
same,"N-docosahexaenoyl leucine level, Mean","adult, 3 mg/kg CP 55,940",PISSR
same,"N-docosahexaenoyl methionine level, Mean","adult, 3 mg/kg CP 55,940",BDL
same,"N-docosahexaenoyl phenylalanine level, Mean","adult, 3 mg/kg CP 55,940",PISSR
same,"N-docosahexaenoyl proline level, Mean","adult, 3 mg/kg CP 55,940",BDL
same,"N-docosahexaenoyl serine level, Mean","adult, 3 mg/kg CP 55,940",PISSR
same,"N-docosahexaenoyl tryptophan level, Mean","adult, 3 mg/kg CP 55,940",BDL
same,"N-docosahexaenoyl tyrosine level, Mean","adult, 3 mg/kg CP 55,940",PISSR
same,"N-docosahexaenoyl valine level, Mean","adult, 3 mg/kg CP 55,940",BDL
same,"N-linoleoyl GABA level, Mean","adult, 3 mg/kg CP 55,940",PISSR
same,"N-linoleoyl alanine level, Mean","adult, 3 mg/kg CP 55,940",PISSR
same,"N-linoleoyl ethanolamine level, Mean","adult, 3 mg/kg CP 55,940",3.83E-11
same,"N-linoleoyl glycine level, Mean","adult, 3 mg/kg CP 55,940",PISSR
same,"N-linoleoyl leucine level, Mean","adult, 3 mg/kg CP 55,940",PISSR
same,"N-linoleoyl methionine level, Mean","adult, 3 mg/kg CP 55,940",BDL
same,"N-linoleoyl phenylalanine level, Mean","adult, 3 mg/kg CP 55,940",PISSR
same,"N-linoleoyl proline level, Mean","adult, 3 mg/kg CP 55,940",BDL
same,"N-linoleoyl serine level, Mean","adult, 3 mg/kg CP 55,940",1.09E-10
same,"N-linoleoyl tryptophan level, Mean","adult, 3 mg/kg CP 55,940",BDL
same,"N-linoleoyl tyrosine level, Mean","adult, 3 mg/kg CP 55,940",BDL
same,"N-linoleoyl valine level, Mean","adult, 3 mg/kg CP 55,940",PISSR
same,"N-nervonoyl valine level, Mean","adult, 3 mg/kg CP 55,940",BDL
same,"N-oleoyl GABA level, Mean","adult, 3 mg/kg CP 55,940",1.7E-11
same,"N-oleoyl alanine level, Mean","adult, 3 mg/kg CP 55,940",3.96E-12
same,"N-oleoyl dopamine level, Mean","adult, 3 mg/kg CP 55,940",BDL
same,"N-oleoyl ethanolamine level, Mean","adult, 3 mg/kg CP 55,940",1.57E-10
same,"N-oleoyl glycine level, Mean","adult, 3 mg/kg CP 55,940",5.26E-13
same,"N-oleoyl leucine level, Mean","adult, 3 mg/kg CP 55,940",1.99E-12
same,"N-oleoyl methionine level, Mean","adult, 3 mg/kg CP 55,940",PISSR
same,"N-oleoyl phenylalanine level, Mean","adult, 3 mg/kg CP 55,940",4.84E-13
same,"N-oleoyl proline level, Mean","adult, 3 mg/kg CP 55,940",BDL
same,"N-oleoyl serine level, Mean","adult, 3 mg/kg CP 55,940",5.05E-10
same,"N-oleoyl tryptophan level, Mean","adult, 3 mg/kg CP 55,940",BDL
same,"N-oleoyl tyrosine level, Mean","adult, 3 mg/kg CP 55,940",PISSR
same,"N-oleoyl valine level, Mean","adult, 3 mg/kg CP 55,940",PISSR
same,"N-palmitoyl GABA level, Mean","adult, 3 mg/kg CP 55,940",2.94E-11
same,"N-palmitoyl alanine level, Mean","adult, 3 mg/kg CP 55,940",3.83E-12
same,"N-palmitoyl ethanolamine level, Mean","adult, 3 mg/kg CP 55,940",7.87E-11
same,"N-palmitoyl glycine level, Mean","adult, 3 mg/kg CP 55,940",2.5E-12
same,"N-palmitoyl leucine level, Mean","adult, 3 mg/kg CP 55,940",3E-12
same,"N-palmitoyl methionine level, Mean","adult, 3 mg/kg CP 55,940",PISSR
same,"N-palmitoyl phenylalanine level, Mean","adult, 3 mg/kg CP 55,940",3.31E-13
same,"N-palmitoyl proline level, Mean","adult, 3 mg/kg CP 55,940",PISSR
same,"N-palmitoyl serine level, Mean","adult, 3 mg/kg CP 55,940",4.99E-11
same,"N-palmitoyl tryptophan level, Mean","adult, 3 mg/kg CP 55,940",BDL
same,"N-palmitoyl tyrosine level, Mean","adult, 3 mg/kg CP 55,940",2.47E-12
same,"N-palmitoyl valine level, Mean","adult, 3 mg/kg CP 55,940",PISSR
same,"N-stearoyl GABA level, Mean","adult, 3 mg/kg CP 55,940",2.26E-11
same,"N-stearoyl alanine level, Mean","adult, 3 mg/kg CP 55,940",4.15E-12
same,"N-stearoyl ethanolamine level, Mean","adult, 3 mg/kg CP 55,940",3.49E-11
same,"N-stearoyl glycine level, Mean","adult, 3 mg/kg CP 55,940",3.37E-12
same,"N-stearoyl leucine level, Mean","adult, 3 mg/kg CP 55,940",3.52E-12
same,"N-stearoyl phenylalanine level, Mean","adult, 3 mg/kg CP 55,940",4.25E-13
same,"N-stearoyl proline level, Mean","adult, 3 mg/kg CP 55,940",BDL
same,"N-stearoyl serine level, Mean","adult, 3 mg/kg CP 55,940",PISSR
same,"N-stearoyl tryptophan level, Mean","adult, 3 mg/kg CP 55,940",BDL
same,"Oleic acid level, Mean","adult, 3 mg/kg CP 55,940",1.22E-09
same,"PGE2 level, Mean","adult, 3 mg/kg CP 55,940",2.64E-10
same,"PhosphoLEA level, Mean","adult, 3 mg/kg CP 55,940",2.11E-11
same,"THC level, Mean","adult, 3 mg/kg CP 55,940",BDL
